Data taken from the CheMixHub ionic liquid set.
± gives the uncertainty stated by the source.

Assay: xn = mol fraction of the nth substance listed

CCCCCC[n+]1ccn(C)c1.F[B-](F)(F)F + CC[n+]1ccn(C)c1.F[B-](F)(F)F
101 kPa
Conditions | viscosity [mPa·s]
298.15 K, x2 = 0 | 211 ± 11
298.15 K, x2 = 0.4061 | 111.8 ± 3.2
298.15 K, x2 = 0.793 | 53.76 ± 0.79
299.15 K, x2 = 0 | 198.1 ± 9.5
299.15 K, x2 = 0.1196 | 162.2 ± 6.6
299.15 K, x2 = 0.1803 | 148.6 ± 5.7
299.15 K, x2 = 0.3145 | 121.9 ± 3.9
299.15 K, x2 = 0.4938 | 91.2 ± 2.1
299.15 K, x2 = 0.6006 | 74.7 ± 1.4
299.15 K, x2 = 0.793 | 51.53 ± 0.68
299.15 K, x2 = 0.9022 | 41.62 ± 0.61
301.15 K, x2 = 0.0545 | 155.3 ± 6.2
301.15 K, x2 = 0.1803 | 132.9 ± 4.6
301.15 K, x2 = 0.8516 | 42.79 ± 0.63
301.15 K, x2 = 0.9022 | 38.54 ± 0.56
302.15 K, x2 = 0 | 167.2 ± 7
302.15 K, x2 = 0.1196 | 137.4 ± 4.9
302.15 K, x2 = 0.8516 | 41.13 ± 0.6
302.15 K, x2 = 0.9022 | 37.08 ± 0.53
303.15 K, x2 = 0.5526 | 68.4 ± 1.1
303.15 K, x2 = 0.6006 | 62.29 ± 0.92
303.15 K, x2 = 0.7059 | 51.99 ± 0.68
303.15 K, x2 = 0.793 | 43.73 ± 0.64
304.15 K, x2 = 0.7059 | 49.86 ± 0.74
304.15 K, x2 = 0.9022 | 34.46 ± 0.49
305.15 K, x2 = 0.3145 | 89.6 ± 2
305.15 K, x2 = 0.4938 | 68.4 ± 1.1
305.15 K, x2 = 0.6006 | 57.12 ± 0.79
305.15 K, x2 = 0.793 | 40.44 ± 0.59
305.15 K, x2 = 0.9022 | 33.23 ± 0.47
307.15 K, x2 = 0.793 | 37.44 ± 0.54
307.15 K, x2 = 0.9022 | 30.96 ± 0.44
308.15 K, x2 = 0.3145 | 77.6 ± 1.4
308.15 K, x2 = 0.4938 | 59.86 ± 0.84
308.15 K, x2 = 0.6006 | 50.38 ± 0.61
308.15 K, x2 = 0.793 | 36.05 ± 0.47
308.15 K, x2 = 0.9022 | 29.94 ± 0.39

CCCCn1cc[n+](CCOCCOCCOCCOCC[n+]2ccn(CCCC)c2)c1.N#C[N-]C#N.N#C[N-]C#N + CC[n+]1ccn(C)c1.N#C[N-]C#N + O=S(=O)([N-]S(=O)(=O)C(F)(F)F)C(F)(F)F.[Li+]
100 kPa, x1 = 0.2104, x2 = 0.6943
Conditions | electrical conductivity [S/m]
298 K | 0.471 ± 0.019
303 K | 0.549 ± 0.022
313 K | 0.79 ± 0.032
323 K | 1.05 ± 0.042
333 K | 1.37 ± 0.055
343 K | 1.67 ± 0.067

F[B-](F)(F)F.[Li+] + CC[n+]1ccn(C)c1.O=S(=O)([N-]S(=O)(=O)C(F)(F)F)C(F)(F)F
electrical conductivity [S/m], 101 kPa
Conditions | x2 = 0.7088 | x2 = 0.7396 | x2 = 0.8073 | x2 = 0.8856 | x2 = 0.9623
288.15 K | – | 0.238 ± 0.024 | 0.31 ± 0.031 | 0.431 ± 0.043 | 0.542 ± 0.054
298.15 K | 0.295 ± 0.03 | 0.384 ± 0.039 | 0.489 ± 0.049 | 0.651 ± 0.065 | 0.807 ± 0.081
333.15 K | 1.01 ± 0.1 | 1.18 ± 0.12 | 1.4 ± 0.14 | 1.72 ± 0.17 | 2.03 ± 0.2

O=C1OCCO1 + CC[n+]1ccn(C)c1.O=S(=O)([N-]S(=O)(=O)C(F)(F)F)C(F)(F)F
100 kPa
Conditions | electrical conductivity [S/m] | viscosity [mPa·s]
293.15 K, x1 = 0.8163 | – | 5 ± 0.5
293.15 K, x1 = 0.98 | 0.62 ± 0.04 | –
303.15 K, x1 = 0.5263 | – | 11.5 ± 1.2
303.15 K, x1 = 0.7476 | – | 6.1 ± 0.6
313.15 K, x1 = 0.95 | 1.42 ± 0.09 | –
333.15 K, x1 = 0.8163 | – | 2.4 ± 0.2
333.15 K, x1 = 0.95 | 1.84 ± 0.11 | –
343.15 K, x1 = 0.5263 | – | 4.6 ± 0.5
343.15 K, x1 = 1 | – | 1.16 ± 0.12
353.15 K, x1 = 0.66 | 4.47 ± 0.27 | –
353.15 K, x1 = 0.82 | 4.06 ± 0.24 | –
353.15 K, x1 = 0.9467 | – | 1.33 ± 0.13
353.15 K, x1 = 0.98 | 1.37 ± 0.08 | –
363.15 K, x1 = 0.8163 | – | 1.56 ± 0.16
373.15 K, x1 = 0.5263 | – | 3 ± 0.3
373.15 K, x1 = 1 | – | 0.85 ± 0.09
383.15 K, x1 = 0.7476 | – | 1.63 ± 0.16
393.15 K, x1 = 0.7476 | – | 1.49 ± 0.15
393.15 K, x1 = 0.9467 | – | 0.91 ± 0.09

F[B-](F)(F)F.[Li+] + CC[n+]1ccn(C)c1.O=S(=O)([O-])C(F)(F)F
electrical conductivity [S/m], 101 kPa
Conditions | x1 = 0.007746 | x1 = 0.01537 | x2 = 0.9648 | x2 = 0.9746
288.15 K | 0.628 ± 0.063 | 0.59 ± 0.059 | – | 0.537 ± 0.054
298.15 K | 0.908 ± 0.091 | 0.855 ± 0.086 | 0.796 ± 0.08 | 0.797 ± 0.08
333.15 K | 2.25 ± 0.23 | 2.19 ± 0.22 | 2.06 ± 0.21 | 2.07 ± 0.21

O=[N+]([O-])[O-].[Li+] + CC[n+]1ccn(C)c1.O=S(=O)([O-])C(F)(F)F
electrical conductivity [S/m], 101 kPa
Conditions | x2 = 0.8748 | x2 = 0.9165 | x2 = 0.9576 | x2 = 0.9746
288.15 K | 0.38 ± 0.038 | 0.454 ± 0.046 | 0.563 ± 0.057 | 0.562 ± 0.056
298.15 K | 0.587 ± 0.059 | 0.68 ± 0.068 | 0.818 ± 0.082 | 0.816 ± 0.082
333.15 K | 1.69 ± 0.17 | 1.85 ± 0.18 | 2.07 ± 0.21 | 2.1 ± 0.21

CC(C)[C@H](N)C(=O)O + CC[n+]1ccn(C)c1.O=S(=O)([O-])O + O
viscosity [mPa·s], 100 kPa
Conditions | x1 = 0.0003621, x2 = 0 | x1 = 0.0007257, x2 = 0 | x1 = 0.001091, x2 = 0 | x1 = 0.001447, x2 = 0 | x1 = 0.001793, x2 = 0 | x1 = 0.002246, x2 = 0 | x1 = 0.002701, x2 = 0
293.15 K | 1.023 ± 0.033 | 1.043 ± 0.033 | 1.064 ± 0.033 | 1.084 ± 0.033 | 1.103 ± 0.033 | 1.128 ± 0.033 | 1.154 ± 0.033
298.15 K | 0.899 ± 0.032 | 0.907 ± 0.032 | 0.916 ± 0.031 | 0.924 ± 0.031 | 0.931 ± 0.031 | 0.941 ± 0.031 | 0.952 ± 0.034
303.15 K | 0.805 ± 0.031 | 0.812 ± 0.031 | 0.82 ± 0.031 | 0.827 ± 0.031 | 0.835 ± 0.031 | 0.844 ± 0.031 | 0.854 ± 0.031
308.15 K | 0.727 ± 0.031 | 0.734 ± 0.031 | 0.742 ± 0.031 | 0.749 ± 0.031 | 0.756 ± 0.031 | 0.765 ± 0.031 | 0.774 ± 0.031
313.15 K | 0.66 ± 0.031 | 0.666 ± 0.031 | 0.673 ± 0.031 | 0.679 ± 0.031 | 0.686 ± 0.031 | 0.694 ± 0.031 | 0.703 ± 0.031

O=C(O)C(F)(F)C(F)(F)C(F)(F)C(F)(F)F + CC[n+]1ccn(C)c1.[Cl-]
102 kPa
Conditions | viscosity [mPa·s]
293.15 K, x2 = 0.6636 | 295 ± 14
303.15 K, x2 = 0.3346 | 24.2 ± 1
313.15 K, x2 = 0.3346 | 17.41 ± 0.74
318.15 K, x2 = 0.5026 | 31.7 ± 1.3
323.15 K, x2 = 0.5026 | 26.6 ± 1.1
333.15 K, x2 = 0.5026 | 19.35 ± 0.81
333.15 K, x2 = 0.6636 | 39.1 ± 1.6
338.15 K, x2 = 0.3346 | 8.91 ± 0.38
338.15 K, x2 = 0.5026 | 16.68 ± 0.7
348.15 K, x2 = 0.5026 | 12.76 ± 0.54
353.15 K, x2 = 0.3346 | 6.42 ± 0.27

CC(C)=O + CC[n+]1ccn(C)c1C.F[B-](F)(F)F
101.3 kPa, x2 = 0
Conditions | viscosity [mPa·s]
293.15 K | 0.325 ± 0.031
298.15 K | 0.303 ± 0.029
303.15 K | 0.297 ± 0.028
308.15 K | 0.283 ± 0.027
313.15 K | 0.269 ± 0.025
318.15 K | 0.251 ± 0.024
323.15 K | 0.244 ± 0.023
